Measured values as given in patent publication US4895973A, “Substituted glutaric acid lactones in the treatment of hyperlipidemia” (G. D. Searle & Company, priority 1988, dated 1990).

Molecular target: T1, rat liver microsomal HMGCoA reductase (Rattus norvegicus, UniProt P51639)
T1 construct: rat liver microsomal HMGCoA reductase; from tissue; host or cells: rat liver microsomes
T1 sequence (P51639 1-887): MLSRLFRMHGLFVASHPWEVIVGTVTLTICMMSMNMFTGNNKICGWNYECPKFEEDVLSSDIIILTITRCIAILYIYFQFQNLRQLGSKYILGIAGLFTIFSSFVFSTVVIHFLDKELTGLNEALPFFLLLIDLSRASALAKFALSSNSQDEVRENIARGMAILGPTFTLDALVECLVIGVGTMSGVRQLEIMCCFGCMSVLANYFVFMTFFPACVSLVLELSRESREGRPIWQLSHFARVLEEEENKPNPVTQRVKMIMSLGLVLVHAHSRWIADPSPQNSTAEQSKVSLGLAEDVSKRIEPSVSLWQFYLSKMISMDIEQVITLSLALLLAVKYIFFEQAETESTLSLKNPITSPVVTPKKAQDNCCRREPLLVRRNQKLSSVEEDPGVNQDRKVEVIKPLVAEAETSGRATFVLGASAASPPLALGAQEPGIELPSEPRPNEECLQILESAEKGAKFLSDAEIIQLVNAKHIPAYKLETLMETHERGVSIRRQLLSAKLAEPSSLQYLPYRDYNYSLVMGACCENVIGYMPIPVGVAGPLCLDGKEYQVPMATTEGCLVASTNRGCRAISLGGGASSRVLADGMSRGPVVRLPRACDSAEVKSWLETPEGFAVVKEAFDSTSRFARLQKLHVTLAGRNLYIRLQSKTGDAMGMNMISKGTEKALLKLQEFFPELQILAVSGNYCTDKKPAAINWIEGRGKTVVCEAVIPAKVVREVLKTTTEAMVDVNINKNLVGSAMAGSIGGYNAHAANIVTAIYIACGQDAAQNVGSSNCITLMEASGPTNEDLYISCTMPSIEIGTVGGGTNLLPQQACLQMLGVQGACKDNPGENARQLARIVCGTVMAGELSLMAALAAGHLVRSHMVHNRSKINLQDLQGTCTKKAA
Experiment: in vitro inhibition of rat liver microsomal HMGCoA reductase
Assay type: biochemical
Conditions: 40 μM 14C-HMGCoA, 15 min at 37° C., pH7.2
Procedure: The IC50 is defined as the concentration required to inhibit the enzyme by 50% of control.
Triplicate samples are preincubated for 15 min. at 37° C. in a volume of 1 ml. […] Mevalonic acid is extracted with ether and the % ^14 C-HMGCoA incorporation determined for concurrent control and test reaction systems. Testing is done (first) with a range finding assay followed by a 4 or 5 point assay to find the IC50 value.

IC50: 1000 nM
SMILES: CC[C@H](C)C(=O)O[C@H]1CCC=C2C=C[C@H](C)[C@H](CC[C@@H]3C[C@@H](O)CC(=O)O3)[C@H]21 [Compactin]
